Data: paper PMC6222476 (Molecules : A Journal of Synthetic Chemistry and Natural …, 2018)
Like-named read-outs stand apart in the source and are kept apart here.

Assays:
[1] = system: IMR-32 neuroblastoma cell line; assay: cells; type: cell-based, human; settings: SRB assay, 48 h
Protocol: (§1) All the newly synthesized compounds were screened for their in vitro anticancer activity against six cancer cell lines: SK-MEL-2, MCF-7, IMR-32, MG-63, HT-29 and Hep-G2 by SRB assay, using adriamycin as a standard drug. All the synthesized derivatives 4(a–n) were also tested for their cytotoxic effect on normal cell lines i.e., NIH/3T3 (murine embryonic fibroblast by the SRB assay method. The cell lines were grown in RPMI 1640 medium containing 10% fetal bovine serum and 2 mM L-glutamine. For the present screening experiments, cells were inoculated into 96 well microtiter plates in 90 µL at 5000 cells per well. After cell inoculation, the microtiter plates were incubated at 37 °C, 5% CO2, 95% air and 100% relative humidity for 24 h prior to addition of experimental drugs. Experimental drugs were solubilized in appropriate solvent to prepare stock of 10^−2 concentration. At the time of experiment four 10-fold serial dilutions were made using complete medium. Aliquots of 10 µL of these different drug dilutions were added to the appropriate micro-titer wells already containing 90 µL of medium, resulting in the required final drug concentrations. After compound addition, plates were incubated at standard conditions for 48 h. and assay was terminated by the addition of cold trichloroacetic acid (TCA). Cells were fixed in situ by the gentle addition of […] (final concentration, 10% TCA) and incubated for 60 min at 4 °C. The supernatant was discarded; the plates were washed five times with tap water and air dried.
(§2) Sulforhodamine B (SRB) solution (50 µL) at 0.4% (w/v) in 1% acetic acid was added to each of the wells, and plates were incubated for 20 min at room temperature. After staining, unbound dye was recovered and the residual dye was removed by washing five times with 1% acetic acid. The plates were air dried. Bound stain was subsequently eluted with 10 mM trizma base, and the absorbance was read on an ELISA plate reader at a wavelength of 540 nm with 690 nm reference wavelength. All the tests were repeated in at least three independent experiments at the concentrations of 10, 20, 40 and 80 µg/mL [57].

[2] = system: NIH/3T3 normal murine embryonic fibroblast cell line; assay: in vitro; type: cell-based; settings: SRB assay
Protocol: as §1, §2

[3] = system: MCF-7 human breast cancer cell line; assay: cells; type: cell-based; settings: 48 h
Protocol: as §1, §2

[4] = system: HT-29 human colon cancer cell line; assay: cells; type: cell-based; settings: for GI50: SRB assay, 48 h, HT-29; for anticancer activity compared with standard drug adriamycin, HT-29: HT-29 (human colon cancer) cell line
Protocol: as §1, §2

[5] = system: Hep-G2 human hepatoma cell line; assay: cells; type: cell-based; settings: for GI50: SRB assay, 48 h, Hep-G2; for anticancer activity compared with standard drug Adriamycin, Hep-G2: Hep-G2 (human hepatoma) cell line
Protocol: as §1, §2

[6] = system: MG-63 human osteosarcoma cell line; assay: cells; type: cell-based; settings: SRB assay, 48 h
Protocol: as §1, §2

[7] = system: SK-MEL-2 human melanoma cancer cell line; assay: cells; type: cell-based; settings: SRB assay, 48 h, read-out: GI50 SKMEL-2
Protocol: as §1, §2

Swiss albino mice = assay: In vivo acute oral toxicity study and gross behavioral studies (OECD Guideline no. 425); design: key to Additional Observation: Convulsions / Behavioral Observation: Motor Activity / Behavioral Observation: Stereotypy / Behavioral Observation: Tremors / Behavioral Observation: Catalepsy / Behavioral Observation: Sedation / Behavioral Observation: Hypnosis / Behavioral Observation: Muscle Spasm / Behavioral Observation: Analgesia / Behavioral Observation: Arching & Rolling / Additional Observation: Skin and Fur / Additional Observation: Eyes Lacrimation / Additional Observation: Salivation / Additional Observation: Diarrhea / Additional Observation: Respiration / Additional Observation: Straub Tail / Additional Observation: Pilo Erection: N. no; Y: Yes; settings: for Additional Observation: Convulsions / Additional Observation: Diarrhea / Additional Observation: Eyes Lacrimation / Additional Observation: Pilo Erection / Additional Observation: Respiration / Additional Observation: Salivation / Additional Observation: Skin and Fur / Additional Observation: Straub Tail / Behavioral Observation: Analgesia / Behavioral Observation: Arching & Rolling / Behavioral Observation: Catalepsy / Behavioral Observation: Hypnosis / Behavioral Observation: Motor Activity / Behavioral Observation: Muscle Spasm / Behavioral Observation: Sedation / Behavioral Observation: Stereotypy / Behavioral Observation: Tremors / No. of Death / Toxicity: Swiss albino mice; for Additional Observation: Convulsions / Additional Observation: Diarrhea / Additional Observation: Eyes Lacrimation / Additional Observation: Pilo Erection / Additional Observation: Respiration / Additional Observation: Salivation / Additional Observation: Skin and Fur / Additional Observation: Straub Tail / Behavioral Observation: Analgesia / Behavioral Observation: Arching & Rolling / Behavioral Observation: Catalepsy / Behavioral Observation: Hypnosis / Behavioral Observation: Motor Activity / Behavioral Observation: Muscle Spasm / Behavioral Observation: Sedation / Behavioral Observation: Stereotypy / Behavioral Observation: Tremors: single oral dose; for No. of Death / Toxicity: single oral dose 100-2000 mg/kg; for lethal dose / mortality: mice, oral; for mortality: up to 2000 mg/kg
Protocol: The in vivo acute oral toxicity study for the newly synthesized scaffolds 4b and 4h was performed according to the OECD Guideline no. 425 [60] using Swiss albino mice (18–22 gm weight) quarantined at the animal house at Y.B. Chavan College of Pharmacy, Aurangabad IAEC approval number CPCSEA/IAEC/P’col-52/2015-16/115. Each group consisted of six mice (overnight fasted) and kept in a colony cage at 25 ± 2 °C with 55% relative humidity and 12 h of light and dark cycle. A specified dose of 100, 250, 500, 750, 1000, 1500 and 2000 mg/kg body weight of mice was administered orally as a single dose. The acute toxic symptoms and the behavioral changes produced by the test compounds were observed continuously for 4 h periods at 8th, 12th and 24th h. Onset of toxic symptoms and the gross behavioral changes were also recorded. These animals were maintained for further 10 days with observations made daily. In case the animal appeared moribund (dying) the animal was sacrificed in a humane way and it is considered to have died because of toxicity.

in vitro = type: cell-based; settings: mouse, SRB assay, normal murine embryonic fibroblast cell line; for GI50: read-out: GI50 NIH/3T3
Protocol: as §1, §2

## CCOP(=O)(OCC)C(NN=C1C(=O)Nc2ccccc21)c1ccccc1 (centres unmarked) [4a, Diethyl(phenyl)(2-(2-oxoindolin-3-ylidene)hydrazinyl)methylphosphonate]
[1]
  GI50: > 100 µM
[2]
  GI50: > 250 µM
[3]; SRB assay
  GI50: > 100 µM
[4]
  GI50: 56.9 µM
[5]
  GI50: 55.2 µM
[6]
  GI50: < 0.1 µM
[7]
  GI50: 56.9 µM

## CCOP(=O)(OCC)C(NN=C1C(=O)Nc2ccccc21)c1ccc(Cl)cc1 (centres unmarked) [4b, Diethyl(4-chlorophenyl)(2-(2-oxoindolin-3-ylidene)hydrazinyl)methylphosphonate]
[1]
  GI50: > 100 µM
Swiss albino mice
  Additional Observation: Convulsions: N
  Additional Observation: Diarrhea: N
  Additional Observation: Eyes Lacrimation: N
  Additional Observation: Pilo Erection: Y
  Additional Observation: Respiration: N
  Additional Observation: Salivation: N
  Additional Observation: Skin and Fur: N
  Additional Observation: Straub Tail: N
  Behavioral Observation: Analgesia: N
  Behavioral Observation: Arching & Rolling: N
  Behavioral Observation: Catalepsy: N
  Behavioral Observation: Hypnosis: N
  Behavioral Observation: Motor Activity: N
  Behavioral Observation: Muscle Spasm: N
  Behavioral Observation: Sedation: N
  Behavioral Observation: Stereotypy: N
  Behavioral Observation: Tremors: N
  No. of Death: Nil
  Toxicity: free of any toxicity and Nil
  lethal dose: above 2000 mg/kg body weight
  mortality: No mortality
[2]
  GI50: > 250 µM
[3]; SRB assay
  GI50: 67.2 µM
[4]
  GI50: 46.9 µM
[5]
  GI50: 18.6 µM
[6]
  GI50: < 0.1 µM
[7]
  GI50: 41.4 µM

## CCOP(=O)(OCC)C(NN=C1C(=O)Nc2ccccc21)c1ccc(F)cc1 (centres unmarked) [4c, Diethyl(4-flurophenyl)(2-(2-oxoindolin-3-ylidene)hydrazinyl)methylphosphonate]
[1]
  GI50: > 100 µM
[2]
  GI50: > 250 µM
[3]; SRB assay
  GI50: > 100 µM
[4]
  GI50: 20.8 µM
[5]
  GI50: 32 µM
[6]
  GI50: < 0.1 µM
[7]
  GI50: 57.5 µM

## CCOP(=O)(OCC)C(NN=C1C(=O)Nc2ccccc21)c1ccc(OC)cc1 (centres unmarked) [4d, (Z)-Diethyl(4-methoxyphenyl)(2-(2-oxoindolin-3-ylidene)hydrazinyl)methylphosphonate]
[1]
  GI50: > 100 µM
[2]
  GI50: > 250 µM
[3]; SRB assay
  GI50: > 100 µM
[4]
  anticancer activity compared with standard drug adriamycin, HT-29: equipotent
  GI50: < 0.1 µM
[5]
  GI50: 45.3 µM
[6]
  GI50: < 0.1 µM
[7]
  GI50: 65.7 µM

## CCOP(=O)(OCC)C(NN=C1C(=O)Nc2ccccc21)c1ccc(OC)c(OC)c1 (centres unmarked) [4e, Diethyl(3,4-dimethoxyphenyl)(2-(2-oxoindolin-3-ylidene)hydrazinyl)methylphosphonate]
[1]
  GI50: > 100 µM
[2]
  GI50: > 250 µM
[3]; SRB assay
  GI50: > 100 µM
[4]
  anticancer activity compared with standard drug adriamycin, HT-29: equipotent
  GI50: < 0.1 µM
[5]
  GI50: 12.2 µM
[6]
  GI50: < 0.1 µM
[7]
  GI50: 55.2 µM

## CCOc1cc(C(N/N=C2\C(=O)Nc3ccccc32)P(=O)(OCC)OCC)ccc1O (centres unmarked) [4h, (Z)-Diethyl(3-ethoxy-4-hydroxyphenyl)(2-(2-oxoindolin-3-ylidene)hydrazinyl)methylphosphonate]
[1]
  GI50: > 100 µM
Swiss albino mice
  Additional Observation: Convulsions: N
  Additional Observation: Diarrhea: N
  Additional Observation: Eyes Lacrimation: N
  Additional Observation: Pilo Erection: Y
  Additional Observation: Respiration: N
  Additional Observation: Salivation: N
  Additional Observation: Skin and Fur: N
  Additional Observation: Straub Tail: N
  Behavioral Observation: Analgesia: N
  Behavioral Observation: Arching & Rolling: N
  Behavioral Observation: Catalepsy: N
  Behavioral Observation: Hypnosis: N
  Behavioral Observation: Motor Activity: Y
  Behavioral Observation: Muscle Spasm: N
  Behavioral Observation: Sedation: N
  Behavioral Observation: Stereotypy: N
  Behavioral Observation: Tremors: N
  No. of Death: Nil
  Toxicity: free of any toxicity and Nil
  lethal dose: above 2000 mg/kg body weight
  mortality: No mortality
[2]
  GI50: > 250 µM
[3]; SRB assay
  GI50: 70.7 µM
[4]
  GI50: 4.1 µM
[5]
  GI50: 43.8 µM
[6]
  GI50: < 0.1 µM
[7]
  GI50: 51 µM

## CCOP(=O)(OCC)C(N/N=C1\C(=O)Nc2ccccc21)c1cccs1 (centres unmarked) [4i, (Z)-Diethyl(2-(2-oxoindolin-3-ylidene)hydrazinyl)(thiophen-2-yl)methylphosphonate]
[1]
  GI50: > 100 µM
[2]
  GI50: > 250 µM
[3]; SRB assay
  GI50: > 100 µM
[4]
  anticancer activity compared with standard drug adriamycin, HT-29: equipotent
  GI50: < 0.1 µM
[5]
  anticancer activity compared with standard drug Adriamycin, Hep-G2: equipotent
  GI50: < 0.1 µM
[6]
  GI50: < 0.1 µM
[7]
  GI50: 55.5 µM

## CCOP(=O)(OCC)C(NN=C1C(=O)Nc2ccccc21)c1ccco1 (centres unmarked) [4j, (Z)-Diethylfuran-2-yl(2-(2-oxoindolin-3-ylidene)hydrazinyl)methylphosphonate]
[1]
  GI50: > 100 µM
[2]
  GI50: > 250 µM
[3]; SRB assay
  GI50: > 100 µM
[4]
  anticancer activity compared with standard drug adriamycin, HT-29: equipotent
  GI50: < 0.1 µM
[5]
  GI50: 44.6 µM
[6]
  GI50: < 0.1 µM
[7]
  GI50: 93.9 µM

## CCOP(=O)(OCC)C(N/N=C1\C(=O)Nc2ccccc21)c1ccccc1O (centres unmarked) [4k, (Z)-Diethyl (2-hydroxyphenyl)(2-(2-oxoindolin-3-ylidene)hydrazinyl)methylphosphonate]
other
  melting point: 152 to 154 °C
[1]; Homo sapiens
  GI50: 44.1 µM
In vitro
  GI50: > 250 µM
[3]; Homo sapiens, MCF7, SRB assay
  GI50: > 100 µM
[4]; Homo sapiens
  GI50: 26.1 µM
[5]; Homo sapiens, HepG2
  GI50: 11.7 µM
[6]; Homo sapiens
  GI50: < 0.1 µM
[7]; Homo sapiens
  GI50: 66.2 µM

## CCOP(=O)(OCC)C(N/N=C1\C(=O)Nc2ccccc21)c1ccc(O)c(C)c1 (centres unmarked) [4l, (Z)-Diethyl (4-hydroxy-3-methylphenyl)(2-(2-oxoindolin-3-ylidene)hydrazinyl)methylphosphonate]
other
  melting point: 190 to 192 °C
[1]; Homo sapiens
  GI50: 89.8 µM
In vitro
  GI50: > 250 µM
[3]; Homo sapiens, MCF7, SRB assay
  GI50: 78.4 µM
[4]
  anticancer activity compared with standard drug adriamycin, HT-29: equipotent
[4]; Homo sapiens
  GI50: < 0.1 µM
[5]
  anticancer activity compared with standard drug Adriamycin, Hep-G2: equipotent
[5]; Homo sapiens, HepG2
  GI50: < 0.1 µM
[6]; Homo sapiens
  GI50: < 0.1 µM
[7]; Homo sapiens
  GI50: 76.4 µM

## COc1cccc2c1C(=O)c1c(O)c3c(c(O)c1C2=O)C[C@@](O)(C(=O)CO)C[C@@H]3O[C@H]1C[C@H](N)[C@H](O)[C@H](C)O1 [ADR, Adriamycin, reference compound]
[1]; Homo sapiens
  GI50: < 0.1 µM
In vitro; NIH/3T3 normal murine embryonic fibroblast cells
  GI50 at 48 h: 82.2 µM
[3]; Homo sapiens, MCF7, SRB assay
  GI50: < 0.1 µM
[4]; Homo sapiens
  GI50: < 0.1 µM
[5]; Homo sapiens, HepG2
  GI50: < 0.1 µM
[6]; Homo sapiens
  GI50: < 0.1 µM
[7]; Homo sapiens
  GI50: < 0.1 µM
